Data reported in EPA's CvTdb concentration-time database.

Tests used:
[1] = tested on: Rat; experiment: concentration in brain after dosing; details: 2 min; dosed: 2-Methyltetrahydrofuran; 40 mg/kg; iv; Female; Harlan Sprague Dawley
[2] = tested on: Rat; experiment: concentration in plasma after dosing; details: 2 h; dosed: 2-Methyltetrahydrofuran; 40 mg/kg; iv; Female; Harlan Sprague Dawley
[3] = tested on: Rat; experiment: concentration in brain after dosing; details: 1.5 h; dosed: 2-Methyltetrahydrofuran; 40 mg/kg; iv; Male; Harlan Sprague Dawley
[4] = tested on: Rat; experiment: concentration in brain after dosing; details: 1.5 h; dosed: 2-Methyltetrahydrofuran; 40 mg/kg; iv; Male; Harlan Sprague Dawley; remark: listed apart in the source
[5] = tested on: Rat; experiment: concentration in plasma after dosing; details: 6 h; dosed: 2-Methyltetrahydrofuran; 40 mg/kg; iv; Male; Harlan Sprague Dawley
[6] = tested on: Rat; experiment: concentration in plasma after dosing; details: 2 h; dosed: 2-Methyltetrahydrofuran; 40 mg/kg; iv; Male; Harlan Sprague Dawley
[7] = tested on: Rat; experiment: concentration in brain after dosing; details: 0.75 h; dosed: 2-Methyltetrahydrofuran; 40 mg/kg; iv; Male; Harlan Sprague Dawley
[8] = tested on: Rat; experiment: concentration in plasma after dosing; details: 2 min; dosed: 2-Methyltetrahydrofuran; 40 mg/kg; iv; Male; Harlan Sprague Dawley
[9] = tested on: Rat; experiment: concentration in plasma after dosing; details: 4 h; dosed: 2-Methyltetrahydrofuran; 40 mg/kg; iv; Male; Harlan Sprague Dawley
[10] = tested on: Rat; experiment: concentration in plasma after dosing; details: dosed: 678-39-7, 40 mg/kg, iv, Female, Harlan Sprague-Dawley
[11] = tested on: Rat; experiment: concentration in kidney after dosing; details: 1 h; dosed: Fluorotelomer alcohol 8+2; 80 mg/kg; oral; Female; Harlan Sprague Dawley
[12] = tested on: Rat; experiment: concentration in brain after dosing; details: 1 h; dosed: Fluorotelomer alcohol 8+2; 80 mg/kg; oral; Female; Harlan Sprague Dawley
[13] = tested on: Rat; experiment: concentration in plasma after dosing; details: 192 h; dosed: Fluorotelomer alcohol 8+2; 24 mg/kg; oral; Male; Harlan Sprague Dawley
[14] = tested on: Rat; experiment: concentration in liver after dosing; details: 12 h; dosed: Fluorotelomer alcohol 8+2; 80 mg/kg; oral; Female; Harlan Sprague Dawley
[15] = tested on: Rat; experiment: concentration in plasma after dosing; details: 192 h; dosed: Fluorotelomer alcohol 8+2; 24 mg/kg; oral; Male; Harlan Sprague Dawley; remark: listed apart in the source
[16] = tested on: Rat; experiment: concentration in plasma after dosing; details: 3 h; dosed: 678-39-7; 40 mg/kg; iv; Male; F344
[17] = tested on: Rat; experiment: concentration in plasma after dosing; details: 5 min; dosed: Perfluorohexanoic Acid; 40 mg/kg; iv; Male; F344
[18] = tested on: Rat; experiment: concentration in brain after dosing; details: 6 h; dosed: Perfluorohexanoic Acid; 80 mg/kg; oral; Male; Harlan Sprague Dawley
[19] = tested on: Rat; experiment: concentration in plasma after dosing; details: 1.5 h; dosed: Perfluorohexanoic Acid; 40 mg/kg; iv; Male; F344
[20] = tested on: Rat; experiment: concentration in plasma after dosing; details: dosed: Perfluorohexanoic Acid, 40 mg/kg, oral, Male, Harlan Sprague Dawley
[21] = tested on: Rat; experiment: concentration in liver after dosing; details: 3 h; dosed: Perfluorohexanoic Acid; 80 mg/kg; oral; Female; Harlan Sprague Dawley
[22] = tested on: Rat; experiment: concentration in liver after dosing; details: 1 h; dosed: Perfluorohexanoic Acid; 80 mg/kg; oral; Male; Harlan Sprague Dawley
[23] = tested on: Rat; experiment: concentration in liver after dosing; details: 1 h; dosed: Perfluorohexanoic Acid; 80 mg/kg; oral; Male; Harlan Sprague Dawley; remark: listed apart in the source
[24] = tested on: Rat; experiment: concentration in plasma after dosing; details: 0.25 h; dosed: Gemfibrozil; 50 mg/kg; oral; Male; Sprague-Dawley
[25] = tested on: Rat; experiment: concentration in plasma after dosing; details: 18 h; dosed: Gemfibrozil; 4.29 mg/kg; oral; Male; Sprague-Dawley
[26] = tested on: Rat; experiment: concentration in plasma after dosing; details: 6 h; dosed: Gemfibrozil; 100 mg/kg; oral; Male; Sprague-Dawley
[27] = tested on: Rat; experiment: concentration in plasma after dosing; details: 0.25 h; dosed: Gemfibrozil; 4.29 mg/kg; oral; Male; Sprague-Dawley
[28] = tested on: Rat; experiment: concentration in plasma after dosing; details: 15 h; dosed: Gemfibrozil; 4.29 mg/kg; oral; Male; Sprague-Dawley
[29] = tested on: Rat; experiment: concentration in plasma after dosing; details: 3360 h; dosed: Perfluorooctane Sulfonate; 2 mg/kg; oral; Female; Harlan Sprague Dawley
[30] = tested on: Rat; experiment: concentration in plasma after dosing; details: dosed: Perfluorooctane Sulfonate, 2 mg/kg, iv, Female, F344
[31] = tested on: Rat; experiment: concentration in liver after dosing; details: 864 h; dosed: Perfluorooctane Sulfonate; 2 mg/kg; oral; Female; Harlan Sprague Dawley
[32] = tested on: Rat; experiment: concentration in kidney after dosing; details: 864 h; dosed: Perfluorooctane Sulfonate; 2 mg/kg; oral; Female; Harlan Sprague Dawley
[33] = tested on: Rat; experiment: concentration in kidney after dosing; details: 24 h; dosed: Perfluorooctane Sulfonate; 2 mg/kg; oral; Female; Harlan Sprague Dawley
[34] = tested on: Rat; experiment: concentration in plasma after dosing; details: 24 h; dosed: Perfluorooctane Sulfonate; 2 mg/kg; oral; Female; Harlan Sprague Dawley
[35] = tested on: Rat; experiment: concentration in brain after dosing; details: 3360 h; dosed: Perfluorooctane Sulfonate; 20 mg/kg; oral; Male; Harlan Sprague Dawley
[36] = tested on: Rat; experiment: concentration in kidney after dosing; details: 864 h; dosed: Perfluorooctane Sulfonate; 20 mg/kg; oral; Male; Harlan Sprague Dawley
[37] = tested on: Rat; experiment: concentration in kidney after dosing; details: 6 h; dosed: Perfluorooctane Sulfonate; 2 mg/kg; oral; Female; Harlan Sprague Dawley
[38] = tested on: Rat; experiment: concentration in liver after dosing; details: 3360 h; dosed: Perfluorooctane Sulfonate; 2 mg/kg; oral; Female; Harlan Sprague Dawley
[39] = tested on: Rat; experiment: concentration in kidney after dosing; details: 6 h; dosed: Perfluorooctane Sulfonate; 2 mg/kg; oral; Female; Harlan Sprague Dawley; remark: listed apart in the source
[40] = tested on: Rat; experiment: concentration in brain after dosing; details: 24 h; dosed: Perfluorooctane Sulfonate; 20 mg/kg; oral; Male; Harlan Sprague Dawley
[41] = tested on: Rat; experiment: concentration in liver after dosing; details: 1848 h; dosed: Perfluorooctane Sulfonate; 2 mg/kg; oral; Female; Harlan Sprague Dawley

## CC1CCCO1 (centres undefined) [2-Methyltetrahydrofuran]
[1]
  concentration in brain: 50.4 µg/mL
[2]
  concentration in plasma: 3.58 µg/mL
[3]
  concentration in brain: 7.3 µg/mL
[4]
  concentration in brain: 2.8 µg/mL
[5]
  concentration in plasma: 0.0169 µg/mL
[6]
  concentration in plasma: 13.9 µg/mL
[7]
  concentration in brain: 11.4 µg/mL
[8]
  concentration in plasma: 59.4 µg/mL
[9]
  concentration in plasma: 0.312 µg/mL

## O=C(O)CCC(F)(F)C(F)(F)C(F)(F)C(F)(F)C(F)(F)C(F)(F)C(F)(F)F [Fluorotelomer acid 7+3]
[10]; 1 h
  concentration in plasma: 1680 ng/mL
[10]; 24 h
  concentration in plasma: 315 ng/mL
[11]
  concentration in kidney: 762 ng/g
[12]
  concentration in brain: 252 ng/g
[13]
  concentration in plasma: 62.9 ng/mL
[14]
  concentration in liver: 5690 ng/g
[15]
  concentration in plasma: 40.8 ng/mL
[16]
  concentration in plasma: 2370 ng/mL

## O=C(O)C(F)(F)C(F)(F)C(F)(F)C(F)(F)C(F)(F)F [Perfluorohexanoic Acid]
[17]
  concentration in plasma: 540 ng/mL
[18]
  concentration in brain: 694 ng/g
[19]
  concentration in plasma: 336 ng/mL
[20]; 1 h
  concentration in plasma: 39400 ng/mL
[20]; 24 h
  concentration in plasma: 423 ng/mL
[21]
  concentration in liver: 14700 ng/g
[22]
  concentration in liver: 88800 ng/g
[23]
  concentration in liver: 83600 ng/g

## Cc1ccc(C)c(OCCCC(C)(C)C(=O)O)c1 [Gemfibrozil]
[24]
  concentration in plasma: 14.4 µg/mL
[25]
  concentration in plasma: 0.287 µg/mL
[26]
  concentration in plasma: 22.7 µg/mL
[27]
  concentration in plasma: 0.509 µg/mL
[28]
  concentration in plasma: 0.285 µg/mL

## O=S(=O)([O-])C(F)(F)C(F)(F)C(F)(F)C(F)(F)C(F)(F)C(F)(F)C(F)(F)C(F)(F)F [Perfluorooctane Sulfonate]
[29]
  concentration in plasma: 144 ng/mL
[30]; 6 h
  concentration in plasma: 4560 ng/mL
[30]; 864 h
  concentration in plasma: 1530 ng/mL
[31]
  concentration in liver: 11100 ng/g
[32]
  concentration in kidney: 3420 ng/g
[33]
  concentration in kidney: 9700 ng/g
[34]
  concentration in plasma: 5650 ng/mL
[35]
  concentration in brain: 1260 ng/g
[36]
  concentration in kidney: 19300 ng/g
[37]
  concentration in kidney: 8350 ng/g
[38]
  concentration in liver: 9920 ng/g
[39]
  concentration in kidney: 4220 ng/g
[40]
  concentration in brain: 11600 ng/g
[41]
  concentration in liver: 6900 ng/g
